Test results as given in patent US6395760B1, “Pesticidal 1-arylpyrazoles” (Rhone-Poulenc Inc., priority 1997, dated 2002).

Experiments:
Parameters in all cases: key: ‘X’ means highly active; ‘+’ means moderately active; ‘−’ means low activity
Aphis gossypii = assay: Soil drench test (systemic activity), aphids on cotton plants; type: in vivo; conditions: 10.0 ppm soil concentration by weight, aphid counts at 5 DAT vs untreated control
Description: (§1) The Soil Drench Test (Systemic Activity) Cotton and sorghum plants were established in pots. One day prior to treatment, each pot was infested with about 25 aphids of a mixed population. Cotton plants were infested with aphids and sorghum plants were infested with the greenbug. The selected compound of formula (I) was applied to the soil surface in a dilution that delivered the equivalent of 10.0 ppm soil concentration by weight. Aphid counts were obtained at 5 DAT (=days after treatment). The number of aphids on the treated plants was compared to the number of those on the untreated control plants.

Musca domestica = assay: Housefly bait/contact test; type: in vivo; conditions: 50 ppm in sugar water bait solution, adult houseflies, mortality after 24 hours
Description: The Housefly Bait/Contact Test About 25 four to six-day-old adult houseflies were anesthetized and placed in a cage with a sugar water bait solution containing the compound. The concentration of the selected compound of formula (I) in the bait solution was 50 ppm.

Schizaphis graminum = assay: Soil drench test (systemic activity), greenbug on sorghum plants; type: in vivo; conditions: 10.0 ppm soil concentration by weight, counts at 5 DAT vs untreated control
Description: as §1

A. gossypii = assay: Foliar application (contact test) with aphids; type: in vivo, Aphis gossypii; conditions: 100 ppm formulation sprayed to runoff on aphid-infested cotton plants, dead aphids counted three days after treatment
Description: Foliar Application (Contact Test) with Aphids Aphid-infested cotton plants were placed on a revolving turntable, and sprayed to runoff with a 100 ppm formulation of the selected compound of formula (I). The treated, A. gossypii-infested plants were held for three days after treatment, after which the dead aphids were counted.

Structure (SMILES)	Systemic activity on aphids (Aphis gossypii)	Activity on house flies by contact (Musca domestica)	Systemic activity on greenbugs (Schizaphis graminum)	Foliar activity on aphids (A. gossypii)
CNc1c([S+](C)[O-])c(C2(C)OCCO2)nn1-c1c(Cl)cc(C(F)(F)F)cc1Cl (racemic) [Compound 39]	+	−	X	
COC(C)(OC)c1nn(-c2c(Cl)cc(C(F)(F)F)cc2Cl)c(N)c1SC [Compound 1, 5-amino-1-[2,6-dichloro-4-(trifluoromethyl)phenyl]-3-[(1,1-dimethoxy)ethyl]-4-methylthio-1H-pyrazole]	X	X	X	+
COC(C)(OC)c1nn(-c2c(Cl)cc(C(F)(F)F)cc2Cl)c(N)c1[S+](C)[O-] (stereo not shown) [Compound 2]	+	X	X	X
CSc1c(C2(C)OCCO2)nn(-c2c(Cl)cc(C(F)(F)F)cc2Cl)c1N [Compound 3]	X	X	X	X
CSc1c(C2(C)OCC(C)O2)nn(-c2c(Cl)cc(C(F)(F)F)cc2Cl)c1N (stereo not shown) [Compound 4]	X	X	X	X
CC1(c2nn(-c3c(Cl)cc(C(F)(F)F)cc3Cl)c(N)c2S(C)(=O)=O)OCCO1 [Compound 5]	X	X	X	X
CSc1c(C2(C)OCC(CO)O2)nn(-c2c(Cl)cc(C(F)(F)F)cc2Cl)c1N (stereo not shown) [Compound 6]	+	−	X	−
CC1(c2nn(-c3c(Cl)cc(C(F)(F)F)cc3Cl)c(N)c2S(C)(=O)=O)OCC(CO)O1 (stereo not shown) [Compound 7]	X	+	X	X
CC1COC(C)(c2nn(-c3c(Cl)cc(C(F)(F)F)cc3Cl)c(N)c2S(C)(=O)=O)O1 (stereo not shown) [Compound 8]	X	X	X	X
C[S+]([O-])c1c(C2(C)OCCO2)nn(-c2c(Cl)cc(C(F)(F)F)cc2Cl)c1N (stereo not shown) [Compound 10, 5-amino-1-[2,6-dichloro-4-(trifluoromethyl)phenyl]-3-(2-methyl-1,3-dioxolane-2-yl)-4-methylsulfinyl-1H-pyrazole]	X	X	X	X
CC1COC(C)(c2nn(-c3c(Cl)cc(C(F)(F)F)cc3Cl)c(N)c2[S+](C)[O-])O1 (stereo not shown) [Compound 11]	X	X	X	X
CSc1c(C2(C)OCCCO2)nn(-c2c(Cl)cc(C(F)(F)F)cc2Cl)c1N [Compound 12]	X	X	X	X
CC1(c2nn(-c3c(Cl)cc(C(F)(F)F)cc3Cl)c(N)c2S(C)(=O)=O)OCCCO1 [Compound 13]		X	X	X
CSc1c(C2(C)OCC(CO)(CO)CO2)nn(-c2c(Cl)cc(C(F)(F)F)cc2Cl)c1N [Compound 14]	−	−		−
C[S+]([O-])c1c(C2(C)NCCS2)nn(-c2c(Cl)cc(C(F)(F)F)cc2Cl)c1N (stereo not shown) [Compound 15, 5-amino-1-[2,6-dichloro-4-(trifluoromethyl)phenyl]-3-(2-methylthiazolidine-2-yl)-4-methylsulfinyl-1H-pyrazole]	X	X	X	−
CSc1c(C2(C)SCCS2)nn(-c2c(Cl)cc(C(F)(F)F)cc2Cl)c1N [Compound 16, 5-amino-1-[2,6-dichloro-4-(trifluoromethyl)phenyl]-3-(2-methyl-1,3-dithiolane-2-yl)-4-methylthio-1H-pyrazole]	−	X	X	+
CC1(c2nn(-c3c(Cl)cc(C(F)(F)F)cc3Cl)c(N)c2S(C)(=O)=O)SCCS1 [Compound 17]	X	X	X	+

Structure (SMILES)	Systemic activity on aphids (Aphis gossypii)	Activity on house flies by contact (Musca domestica)	Systemic activity on greenbugs (Schizaphis graminum)	Foliar activity on aphids (A. gossypii)
C[S+]([O-])c1c(C2(C)SCCS2)nn(-c2c(Cl)cc(C(F)(F)F)cc2Cl)c1N (stereo not shown) [Compound 18]	−	X	+	X
CSc1c(C2(C)SCC[S+]2[O-])nn(-c2c(Cl)cc(C(F)(F)F)cc2Cl)c1N (stereo not shown) [Compound 19]	−	X	+	X
C[S+]([O-])c1c(C2(C)SCC[S+]2[O-])nn(-c2c(Cl)cc(C(F)(F)F)cc2Cl)c1N (stereo not shown) [Compound 20]	−	X	−	−
CC1(c2nn(-c3c(Cl)cc(C(F)(F)F)cc3Cl)c(N)c2S(C)(=O)=O)SCC[S+]1[O-] (stereo not shown) [Compound 21]	−	X	−	−
CC1(c2nn(-c3c(Cl)cc(C(F)(F)F)cc3Cl)c(N)c2S(C)(=O)=O)[S+]([O-])CC[S+]1[O-] (stereo not shown) [Compound 22]	X	−	+	−
CC1(c2nn(-c3c(Cl)cc(C(F)(F)F)cc3Cl)c(N)c2S(C)(=O)=O)OCCS1 (stereo not shown) [Compound 23, 5-amino-1-[2,6-dichloro-4-(trifluoromethyl)phenyl]-3-(2-methyl-1,3-oxathiolane-2-yl)-4-methylsulfonyl-1H-pyrazole]	X	−		
CSc1c(C2(C)OCCS2)nn(-c2c(Cl)cc(C(F)(F)F)cc2Cl)c1N (stereo not shown) [Compound 24]	X		X	
CC1(c2nn(-c3c(Cl)cc(C(F)(F)F)cc3Cl)c(N)c2S(C)(=O)=O)S(=O)(=O)CCS1(=O)=O [Compound 25, 5-amino-1-[2,6-dichloro-4-(trifluoromethyl)phenyl]-3-(2-methyl-1,1,3,3-tetraoxo-1,3-dithiolane-2-yl)-4-methylsulfonyl-1H-pyrazole]	−	−		
C[S+]([O-])c1c(C2(C)OCC(CO)O2)nn(-c2c(Cl)cc(C(F)(F)F)cc2Cl)c1N (stereo not shown) [Compound 26]	−	X	+	−
CSCC1COC(C)(c2nn(-c3c(Cl)cc(C(F)(F)F)cc3Cl)c(N)c2SC)O1 (stereo not shown) [Compound 27]	X	X	+	−
CSc1c(C2(C)OCC(C[S+](C)[O-])O2)nn(-c2c(Cl)cc(C(F)(F)F)cc2Cl)c1N (stereo not shown) [Compound 28]	X	X	−	X
C[S+]([O-])CC1COC(C)(c2nn(-c3c(Cl)cc(C(F)(F)F)cc3Cl)c(N)c2[S+](C)[O-])O1 (stereo not shown) [Compound 29]	X	X	−	X
CSCC1COC(C)(c2nn(-c3c(Cl)cc(C(F)(F)F)cc3Cl)c(N)c2S(C)(=O)=O)O1 (stereo not shown) [Compound 30]	X	−		
C[S+]([O-])CC1COC(C)(c2nn(-c3c(Cl)cc(C(F)(F)F)cc3Cl)c(N)c2S(C)(=O)=O)O1 (stereo not shown) [Compound 31]	X	+		+
CCNc1c(SC)c(C2(C)OCCO2)nn1-c1c(Cl)cc(C(F)(F)F)cc1Cl [Compound 36]	X	X		+
CCNc1c([S+](C)[O-])c(C2(C)OCCO2)nn1-c1c(Cl)cc(C(F)(F)F)cc1Cl (stereo not shown) [Compound 37]	X	X		X
CNc1c(SC)c(C2(C)OCCO2)nn1-c1c(Cl)cc(C(F)(F)F)cc1Cl [Compound 38]	X	X	X	
